Test results reported in patent US6921775B2, “Methods for modulating brain damage” (Children's Medical Center Corporation, priority 2001, dated 2005).

Test system: AMPA receptors in cerebral white matter
Assay: Intracerebral AMPA injection white matter injury
Assay type: in vivo
Description: The methods used in this example are described in Follett et al. (2000) J. Neurosci. 20:9235-9241, incorporated by reference herein.
NBQX attenuation of the selective white matter injury after hypoxia/ischemia implicated GluR-mediated toxicity as an important mechanism of injury in immature OLs. To confirm a relationship between the activation of AMPA receptors in cerebral white matter and the vulnerability to injury, AMPA was injected directly into immature white matter. […] Minimal to no injury was present in vehicle-injected controls (M K801 alone; n=7) at the same age (t test, p<0.001).
To determine whether AMPA toxicity was age dependent, lesion size after intracerebral AMPA injections at P4, P7, and P11 was compared.

`Cc1o[nH]c(=O)c1CC(N)C(=O)O` (centres unmarked) [AMPA] was tested, and the “white matter injury after intracerebral injection” value (P7 rat pups, 5 nmol of AMPA plus 5 nmol of MK-801, vs MK-801 alone p<0.001) was “produced white matter injury” and the “white matter injury (pericallosal lesion size) after injection at P4 and P11 compared with P7” value (intracerebral AMPA, one-way ANOVA p<0.001) was “significantly less white matter injury”.
